{
  "source": "patent US7034036B2",
  "about": "“Inhibitors of ABC drug transporters at the blood-brain barrier” (Pain Therapeutics, Inc., priority 2000, dated 2006)",
  "key": {"PGP1a [1]": {"biological_target": "PGP1a (Homo sapiens, UniProt P08183)", "sequence (P08183 whole entry)": "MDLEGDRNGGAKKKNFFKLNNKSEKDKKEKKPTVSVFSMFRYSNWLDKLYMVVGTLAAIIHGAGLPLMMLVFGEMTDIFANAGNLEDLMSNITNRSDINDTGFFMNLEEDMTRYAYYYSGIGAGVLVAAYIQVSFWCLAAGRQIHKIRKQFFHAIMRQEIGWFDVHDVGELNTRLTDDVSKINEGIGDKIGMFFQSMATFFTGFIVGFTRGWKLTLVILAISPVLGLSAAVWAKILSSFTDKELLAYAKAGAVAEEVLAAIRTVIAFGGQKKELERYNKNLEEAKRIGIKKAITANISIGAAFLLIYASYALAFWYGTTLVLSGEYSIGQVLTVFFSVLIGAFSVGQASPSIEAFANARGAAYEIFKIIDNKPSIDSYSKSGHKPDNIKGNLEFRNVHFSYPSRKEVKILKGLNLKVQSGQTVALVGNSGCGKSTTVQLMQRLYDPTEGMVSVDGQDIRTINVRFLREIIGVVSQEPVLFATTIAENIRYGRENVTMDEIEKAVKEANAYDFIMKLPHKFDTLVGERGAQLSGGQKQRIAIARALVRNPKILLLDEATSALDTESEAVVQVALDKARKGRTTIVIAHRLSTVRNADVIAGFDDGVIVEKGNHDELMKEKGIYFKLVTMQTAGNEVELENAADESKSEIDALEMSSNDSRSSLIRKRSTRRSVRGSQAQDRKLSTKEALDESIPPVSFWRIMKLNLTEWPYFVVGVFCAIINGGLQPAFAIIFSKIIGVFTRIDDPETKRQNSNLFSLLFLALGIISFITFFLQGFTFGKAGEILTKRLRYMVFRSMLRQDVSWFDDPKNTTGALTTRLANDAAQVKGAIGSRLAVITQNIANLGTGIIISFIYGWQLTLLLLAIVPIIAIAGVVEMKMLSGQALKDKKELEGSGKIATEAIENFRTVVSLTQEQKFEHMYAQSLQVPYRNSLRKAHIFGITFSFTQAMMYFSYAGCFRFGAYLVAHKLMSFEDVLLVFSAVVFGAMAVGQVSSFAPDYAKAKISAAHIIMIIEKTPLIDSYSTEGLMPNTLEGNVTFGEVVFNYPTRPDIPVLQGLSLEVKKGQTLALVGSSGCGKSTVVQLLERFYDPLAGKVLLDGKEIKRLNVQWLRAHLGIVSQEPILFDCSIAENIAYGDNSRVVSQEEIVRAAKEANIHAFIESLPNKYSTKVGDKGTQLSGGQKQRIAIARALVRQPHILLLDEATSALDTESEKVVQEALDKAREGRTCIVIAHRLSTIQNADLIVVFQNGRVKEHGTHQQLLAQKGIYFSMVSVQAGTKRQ", "assay": "Biological activity of exemplary compounds (Activity 1 high affinity site, Activity 2 low affinity site)", "conditions": "for Activity 2: high capacity, low affinity binding site; for Activity 1: low capacity, high affinity binding site"}, "mice [2]": {"system": "mice", "assay": "Tolerance to oxycodone in mice, parallel experiments", "format": "in vivo"}, "human PGP": {"biological_target": "human PGP (Homo sapiens, UniProt P08183)", "sequence (P08183 whole entry)": "as above", "assay": "Inhibition of PGP-mediated [3H]-digoxin transport in LLC-PK1 cell monolayers expressing human PGP cDNA (15B-J)", "conditions": "for % Inhibition of Digoxin Transport: 5 μM [3H]-digoxin, 90 min"}, "PGP1a [3]": {"system": "PGP1a", "assay": "Vanadate-sensitive PGP ATPase activity in PGP membranes", "format": "biochemical", "conditions": "for Inhibition of the ATPase associated with PGP1a: semi-quantitative assay", "procedure": "The test substances were incubated in the membranes and supplemented with MgATP, with and without sodium orthovanadate present. Orthovanadate inhibits PGP by trapping MgADP in the nucleotide binding site. Thus, the ATPase activity measured in the presence of orthovanadate represents non-PGP ATPase activity and was subtracted from the activity generated without orthovanadate to yield vanadate-sensitive ATPase activity.\nATPase assays were conducted in 96-well microtiter plates. A 0.06 ml reaction mixture containing 40 μg PGP membranes, test substance, and 4 mM MgATP, in buffer containing 50 mM Tris-MES, 2 mM EGTA, 50 mM KCl, 2 mM dithiothreitol, and 5 mM sodium azide, plus organic solvent was incubated at 37° C. for 20 minutes. […] Identical reaction mixtures containing 100 μM sodium orthovanadate were assayed in parallel. The reactions were stopped by the addition of 30 μl of 10% SDS+Antifoam A. The incubations were followed with addition of 200 μl of 35 mM Ammonium Molybdate in 15 mM Zinc Acetate:10% Ascorbic Acid (1:4) and incubated for an additional 20 minutes at 37° C. Additionally, 0.06 ml aliquots of potassium phosphate standards prepared in the buffer described above, were incubated in the plates containing the test and control substances, with SDS and detection reagent added. The liberation of inorganic phosphate was detected by its absorbance at 800 nm and quantitated by comparing the absorbance to a phosphate standard curve. The concentration dependence of the PGP was analyzed for evidence of saturation of PGP-ATPase activity, and apparent kinetic parameters were calculated by non-linear regression."}, "mice [4]": {"system": "mice", "assay": "Tail flick anti-nociception, naltrexone given with morphine from day 1 (Groups C, D, combined analysis)", "format": "in vivo", "parameters": "Enhancement of Latency (tail flick) / Enhancement of Latency by Naltrexone (tail flick): unit not given here", "conditions": "Group 1: morphine 3 mg/kg only", "procedure": "In a third series of experiments, 40 male mice were randomized into 5 groups of eight. All mice were administered single 3 mg/kg morphine daily (b.i.d.), beginning on Day 1.\nIn a final series of experiments, 40 female mice were randomized into 5 groups of eight. All mice were administered single 3 mg/kg morphine daily (b.i.d.), beginning on Day 1."}, "mice [5]": {"system": "mice", "assay": "Tail flick anti-nociception, naltrexone begun at day 6 in mice dosed daily with morphine (Groups A, B)", "format": "in vivo", "conditions": "for Adaptation to repeated dosing (tail flick latency, words): Group 1, morphine 3 mg/kg daily alone", "procedure": "40 male mice were randomized into 5 groups of eight. All mice were administered single 3 mg/kg morphine daily (b.i.d.), beginning on Day 1.\nIn a second series of experiments, 40 female mice were randomized into 5 groups of eight. All mice were administered single 3 mg/kg morphine daily (b.i.d.), beginning on Day 1.\n3 mg/kg of morphine was administered as a single bolus dose to each mouse on group 1 on a daily basis. Mice in Group 2 were also administered 3 mg/kg morphine daily."}, "[6]": {"conditions": "male mice, 0.1 mg/kg oxycodone plus 1 ng/kg naltrexone, 1 ng/kg nalmefene or 1 pg/kg nor-BNI"}},
  "note": "“Also recorded” adds a separate entry of the source.",
  "data": [
    {"smiles": "Oc1ccc2c3c1O[C@H]1[C@H](O)CC[C@@]4(O)[C@@H](C2)N(CC2CC2)CC[C@]314", "note": "[6-β-Naltrexol, 6-β-naltrexol]", "values": [
      {"measurement": "Activity 2", "setting": "PGP1a [1]", "result": 100, "unit": "µM"},
      {"measurement": "Activity 1", "setting": "PGP1a [1]", "result": 0.1, "unit": "nM"}
    ]},
    {"smiles": "C=C1CC[C@@]2(O)[C@H]3Cc4ccc(O)c5c4[C@@]2(CCN3CC2CC2)[C@H]1O5", "note": "[Nalmefene, nalmefene]", "values": [
      {"measurement": "Development of tolerance to oxycodone", "setting": "mice [2]; [6]", "result": "did not develop tolerance"},
      {"measurement": "% Inhibition of Digoxin Transport", "setting": "human PGP; 0.0001 μM test substance", "result": 5.2, "unit": "%"},
      {"measurement": "% Inhibition of Digoxin Transport", "setting": "human PGP; 0.0003 μM test substance", "result": 7.2, "unit": "%"},
      {"measurement": "% Inhibition of Digoxin Transport", "setting": "human PGP; 0.001 μM test substance", "result": 2.8, "unit": "%"},
      {"measurement": "% Inhibition of Digoxin Transport", "setting": "human PGP; 0.003 μM test substance", "result": 5.1, "unit": "%"},
      {"measurement": "% Inhibition of Digoxin Transport", "setting": "human PGP; 0.01 μM test substance", "result": 3.9, "unit": "%"},
      {"measurement": "% Inhibition of Digoxin Transport", "setting": "human PGP; 0.03 μM test substance", "result": "−7.2", "unit": "%"},
      {"measurement": "% Inhibition of Digoxin Transport", "setting": "human PGP; 0.1 μM test substance", "result": "−0.3", "unit": "%"},
      {"measurement": "% Inhibition of Digoxin Transport", "setting": "human PGP; 0.3 μM test substance", "result": "−5.6", "unit": "%"},
      {"measurement": "% Inhibition of Digoxin Transport", "setting": "human PGP; 1 μM test substance", "result": "−2.6", "unit": "%"},
      {"measurement": "Inhibition of digoxin transport", "setting": "human PGP; increasing concentration between 3 and 100 μM", "result": "increasingly inhibited"},
      {"measurement": "Activity 2", "setting": "PGP1a [1]", "result": 100, "unit": "µM"},
      {"measurement": "Activity 1", "setting": "PGP1a [1]", "result": 0.3, "unit": "nM"},
      {"measurement": "Vanadate-sensitive ATPase Activity", "setting": "PGP1a [3]; 30 μM", "result": 2.3, "unit": "nmol/mg/min"},
      {"measurement": "Vanadate-sensitive ATPase Activity", "setting": "PGP1a [3]; 100 μM", "result": 3.2, "unit": "nmol/mg/min"},
      {"measurement": "Inhibition of the ATPase associated with PGP1a", "setting": "PGP1a [3]", "result": "shown to inhibit"}
    ]},
    {"smiles": "CN1CC[C@]23c4c5ccc(O)c4O[C@H]2[C@@H](O)C=C[C@H]3[C@H]1C5", "note": "[morphine]", "values": [
      {"measurement": "Enhancement of Latency (tail flick)", "setting": "mice [4]; Table 15, combined analysis (title prints Female Mice), Day 1", "result": 7.4},
      {"measurement": "Enhancement of Latency (tail flick)", "setting": "mice [4]; Table 15, combined analysis (title prints Female Mice), Day 3", "result": 3.0},
      {"measurement": "Enhancement of Latency (tail flick)", "setting": "mice [4]; Table 15, combined analysis (title prints Female Mice), Day 5", "result": "−1.2"},
      {"measurement": "Enhancement of Latency (tail flick)", "setting": "mice [4]; Table 15, combined analysis (title prints Female Mice), Day 8", "result": "−3.7"},
      {"measurement": "Enhancement of Latency (tail flick)", "setting": "mice [4]; Table 15, combined analysis (title prints Female Mice), Day 10", "result": "−3.3"},
      {"measurement": "Enhancement of Latency (tail flick)", "setting": "mice [4]; female mice, Day 1", "result": 5.4},
      {"measurement": "Enhancement of Latency (tail flick)", "setting": "mice [4]; female mice, Day 3", "result": "−0.1"},
      {"measurement": "Enhancement of Latency (tail flick)", "setting": "mice [4]; female mice, Day 5", "result": "−4.1"},
      {"measurement": "Enhancement of Latency (tail flick)", "setting": "mice [4]; female mice, Day 7", "result": "−5.0"},
      {"measurement": "Enhancement of Latency (tail flick)", "setting": "mice [4]; female mice, Day 10", "result": "−3.3"},
      {"measurement": "Enhancement of Latency (tail flick)", "setting": "mice [4]; female mice, Day 11, single bolus 10 μg/kg naltrexone to every mouse", "result": "−5.2"},
      {"measurement": "Enhancement of Latency (tail flick)", "setting": "mice [4]; male mice, Day 1", "result": 9.3},
      {"measurement": "Enhancement of Latency (tail flick)", "setting": "mice [4]; male mice, Day 3", "result": 6.2},
      {"measurement": "Enhancement of Latency (tail flick)", "setting": "mice [4]; male mice, Day 5", "result": 1.6},
      {"measurement": "Enhancement of Latency (tail flick)", "setting": "mice [4]; male mice, Day 8", "result": "−2.3"},
      {"measurement": "Enhancement of Latency (tail flick)", "setting": "mice [4]; male mice, Day 10", "result": "−3.3"},
      {"measurement": "Enhancement of Latency (tail flick)", "setting": "mice [4]; male mice, Day 12, single bolus 10 μg/kg naltrexone to every mouse", "result": "−4.3"},
      {"measurement": "Tolerance", "setting": "mice [5]; 3 mg/kg daily, by Day 5", "result": "showed distinct tolerance"},
      {"measurement": "Adaptation to repeated dosing (tail flick latency, words)", "setting": "mice [5]; female mice, especially from day five onwards", "result": "show an adaptation to morphine"},
      {"measurement": "Adaptation to repeated dosing (tail flick latency, words)", "setting": "mice [5]; male mice", "result": "showed adaptation"}
    ]},
    {"smiles": "C=CCN1CC[C@]23c4c5ccc(O)c4O[C@H]2C(=O)CC[C@@]3(O)[C@H]1C5", "note": "[Naloxone, naloxone]", "values": [
      {"measurement": "Ketoconazole Normalized % Inhibition of Digoxin Transport", "setting": "human PGP; 0.0001 μM nominal, normalized to 25 μM ketoconazole", "result": 6.2, "unit": "%"},
      {"measurement": "Ketoconazole Normalized % Inhibition of Digoxin Transport", "setting": "human PGP; 0.0003 μM nominal, normalized to 25 μM ketoconazole", "result": 8.4, "unit": "%"},
      {"measurement": "Ketoconazole Normalized % Inhibition of Digoxin Transport", "setting": "human PGP; 0.001 μM nominal, normalized to 25 μM ketoconazole", "result": 10, "unit": "%"},
      {"measurement": "Ketoconazole Normalized % Inhibition of Digoxin Transport", "setting": "human PGP; 0.01 μM nominal, normalized to 25 μM ketoconazole", "result": "−4.5", "unit": "%"},
      {"measurement": "Ketoconazole Normalized % Inhibition of Digoxin Transport", "setting": "human PGP; 0.03 μM nominal, normalized to 25 μM ketoconazole", "result": 5.7, "unit": "%"},
      {"measurement": "Ketoconazole Normalized % Inhibition of Digoxin Transport", "setting": "human PGP; 0.1 μM nominal, normalized to 25 μM ketoconazole", "result": "−2.7", "unit": "%"},
      {"measurement": "Ketoconazole Normalized % Inhibition of Digoxin Transport", "setting": "human PGP; 1 μM nominal, normalized to 25 μM ketoconazole", "result": 7.8, "unit": "%"},
      {"measurement": "Inhibition of digoxin transport", "setting": "human PGP; at the 30 and 100 μM concentrations", "result": "exhibited inhibitory behavior"},
      {"measurement": "Inhibition of digoxin transport", "setting": "human PGP; concentrations below 30 μM, not concentration-dependent", "result": "slightly inhibited"},
      {"measurement": "Ketoconazole Normalized % Inhibition of Digoxin Transport", "setting": "human PGP; nominal 0.03 μM as printed in the fourth line (measured […])", "result": 5.7, "unit": "%"},
      {"measurement": "Activity 2", "setting": "PGP1a [1]", "result": 30, "unit": "µM"},
      {"measurement": "Activity 1", "setting": "PGP1a [1]", "result": 1.0, "unit": "nM"},
      {"measurement": "Vanadate-sensitive ATPase Activity", "setting": "PGP1a [3]; 1 μM", "result": 0.4, "unit": "nmol/mg/min"},
      {"measurement": "Vanadate-sensitive ATPase Activity", "setting": "PGP1a [3]; 3 μM", "result": 1.7, "unit": "nmol/mg/min"},
      {"measurement": "Vanadate-sensitive ATPase Activity", "setting": "PGP1a [3]; 10 μM", "result": 2, "unit": "nmol/mg/min"},
      {"measurement": "Vanadate-sensitive ATPase Activity", "setting": "PGP1a [3]; 30 μM", "result": 1.9, "unit": "nmol/mg/min"},
      {"measurement": "Vanadate-sensitive ATPase Activity", "setting": "PGP1a [3]; 100 μM", "result": 1.8, "unit": "nmol/mg/min"},
      {"measurement": "Inhibition of the ATPase associated with PGP1a", "setting": "PGP1a [3]", "result": "shown to inhibit; also recorded: only weakly inhibited"}
    ]},
    {"smiles": "Oc1ccc2c3c1O[C@H]1c4[nH]c5c(c4C[C@@]4(O)[C@@H](C2)N(CC2CC2)CC[C@]314)C[C@@]1(O)[C@H]2Cc3ccc(O)c4c3[C@@]1(CCN2CC1CC1)[C@H]5O4", "note": "[nor-BNI, nor-binaltorphimine]", "values": [
      {"measurement": "Development of tolerance to oxycodone", "setting": "mice [2]; female mice, 1 or 5 mg/kg oxycodone with 1 pg/kg, 1 ng/kg or 1 μg/kg naltrexone or 1 pg/kg nor-BNI", "result": "None of the mice developed tolerance"},
      {"measurement": "Development of tolerance to oxycodone", "setting": "mice [2]; [6]", "result": "did not develop tolerance"}
    ]}
  ]
}
